Measured values reported in patent US20210017492A1, “USE OF RETINOIC ACID IN T-CELL MANUFACTURING” (Immatics US, Inc., priority 2019, published 2021).
“Also recorded” adds a separate entry of the source. Where two headings read alike, the source gives them in different places.

Columns and labels:
[1] = system: T cells; assay: Flow cytometry staining of Day 6 cells for expression of the transduced TCR (PRAME dextramer); format: cell-based, human
Procedure: Flow cytometry staining was performed on Day 6 cells to assess the expression of TCR.

[2] = system: T cells
Procedure: On Day 3, cells were fed with media containing IL-7 and IL-15. On Day 6, cells were harvested and about half of cells were cryopreserved. The other half of cells were transferred to G-Rex 6-well plate, to which 10 ml of fresh medium was added without RA (Group 1) or with RA (100 nM/ml) (Group 2). Some Day 6 cells were analysed by flow cytometry to assess transduction efficiency. On Day 8, remaining cells were harvested and cryopreserved.

[3] = Day 6 or Day 8 cells untreated or treated with RA, data not shown
[4] = Day 6 or Day 8 cells, Wilcoxon test
[5] = Day 6 or Day 8 cells, data not shown
[6] = RA-treated Day 6 T cell products
[7] = RA-treated Day 8 T cell products

CC1=C(/C=C/C(C)=C/C=C/C(C)=C/C(=O)O)C(C)(C)CCC1 [RA, all-trans-retinoic acid]
% CD3+ of live lymphocytes, with vs without RA ([1]; Donor 1): comparable | % CD8+ of live CD3+ cell, with vs without RA ([1]; Donor 1): comparable | % of CD8+ cells expressing the transduced TCR ([1]; Donor 1, with RA treatment (ATRA 100 nM/ml)): 32.9% | % CD3+ of live lymphocytes, with vs without RA ([1]; Donor 2): comparable | % CD8+ of live CD3+ cell, with vs without RA ([1]; Donor 2): comparable | % of CD8+ cells expressing the transduced TCR ([1]; Donor 2, with RA treatment (ATRA 100 nM/ml)): 13.3% | CD38 expression on RA-treated CD8+ T cells [2]: expressed on all RA-treated CD8+ T cells | RA-treated CD103+ cells that also express CCR9 [2]: almost all | effect of RA treatment on CD45RA+ CD3+CD8+ T cells ([2]; 1-way ANOVA on 3 data sets): significantly decreases | effect of RA treatment on transitional CD3+CD8+ T cells ([2]; 1-way ANOVA on 3 data sets): significantly decreases | effect of RA treatment on CD45RO+ T cells ([2]; 1-way ANOVA on 3 data sets, CD3+CD8+ T cells): significantly increases | CD25+ cells, with vs without RA treatment ([2]; Day 6 or Day 8 T cell products, Paired t-test): does not impact; also recorded: no significant difference | CD73, untreated or treated with RA ([2]; Day 6 or Day 8 cells): no difference was observed between Day 6 or Day 8 cells | CD95, untreated or treated with RA ([2]; Day 6 or Day 8 cells): no difference was observed between Day 6 or Day 8 cells | CD73 positive cells [2, 3]: untreated or treated with RA (<5% positive, data not shown) | CD95 positive cells [2, 3]: untreated or treated with RA (>90% positive, data not shown) | CD27+ cells, treated vs untreated [2, 4]: no significant difference; also recorded: No difference was seen between treated and untreated and | CD28+ cells, treated vs untreated [2, 4]: no significant difference; also recorded: No difference was seen between treated and untreated and | CD39+ cells, untreated or treated with RA [2, 4]: no significant difference; also recorded: no difference was observed between Day 6 or Day 8 cells | CXCR4+ cells, untreated or treated with RA [2, 4]: no significant difference; also recorded: no difference was observed between Day 6 or Day 8 cells | HLA-DR+ cells, untreated or treated with RA [2, 4]: no significant difference; also recorded: no difference was observed between Day 6 or Day 8 cells | CD56 (NK-related marker), treated vs untreated [2, 5]: No difference was seen between treated and untreated and | CD94 (NK-related marker), treated vs untreated [2, 5]: No difference was seen between treated and untreated and | CD314 (NK-related marker), treated vs untreated [2, 5]: No difference was seen between treated and untreated and | effect of RA treatment on Tcm ([2]; FIG. 10): increases | effect of RA treatment on Tem ([2]; FIG. 10): little effect | effect of RA treatment on Temra ([2]; FIG. 10): little effect | effect of RA treatment on naïve/Tscm ([2]; FIG. 10): significantly decreases | CD103 expression, with vs without RA treatment ([2]; FIG. 19B): does not significantly affect | CD45RO+ T cells [2, 6]: 80.3% | CD62L+ T cells [2, 6]: 7.74% | naïve/Tscm (CD45RA+CD197+) [2, 6]: 6.07% | CD45RO+ T cells [2, 7]: 84.5% | CD62L+ T cells vs without RA treatment [2, 7]: significantly fewer | naïve/Tscm (CD45RA+CD197+) [2, 7]: 4.25% | CCR9+ cells, with vs without RA treatment ([2]; Wilcoxon test, p=0.0313): significantly increases | CD25+ cells, Day 8 RA-treated vs Day 6 T cell products without RA treatment ([2]; Wilcoxon test, p=0.0313): significantly fewer | CD38+ cells, with vs without RA treatment ([2]; Wilcoxon test, p=0.0313): significantly increases | CD38 MFI (Mean Fluorescence Intensity) in CD8+ T cells vs without RA treatment ([2]; Wilcoxon test, p=0.0313): higher | CD49a+ cells, with vs without RA treatment ([2]; Wilcoxon test, p=0.0313): significantly increases | CD69+ cells, with vs without RA treatment ([2]; Wilcoxon test, p=0.0313): significantly increases | ICOS+ cells, with vs without RA treatment ([2]; Wilcoxon test, p=0.0313): lower levels; also recorded: significantly decreases | α4β7+ cells, with vs without RA treatment ([2]; Wilcoxon test, p=0.0313, α4+ and β7+ detected separately): significantly increases | CD197+ cells ([2]; between Day 6 and Day 8 T cell products with or without RA treatment): no significant difference | CCR6, effect of RA treatment ([2]; data not shown): to low frequency and no differences (data not shown) | expression of CCR9 on DEX+CD3+CD8+α4β7+ cells vs without RA treatment ([2]; p=0.0313): significantly higher | α4β7 expression in CD3+CD8+DEX+ cells vs without RA treatment ([2]; p=0.0313): significantly higher | α4β7+ cells present in CD3+CD8+DEX+ cells ([2]; with RA treatment, CD49d (α4) and β7): 54.6%
